{"source": "patent US8029764B2", "about": "“Methods for detection of colorectal cancer” (The Johns Hopkins University, priority 2001, dated 2011)", "system": "colorectal tissue transcripts", "assay": "SAGE of normal, adenoma and cancer colorectal tissue (transcript tag counts)", "set-up": "species or system human", "settings": "for AD1 (SAGE tag count): SAGE library AD1; for AD2 (SAGE tag count): SAGE library AD2; for CA1 (SAGE tag count): SAGE library CA1; for CA2 (SAGE tag count): SAGE library CA2; for NC1 (SAGE tag count): SAGE library NC1; for NC2 (SAGE tag count): SAGE library NC2", "in_short": "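Tag counts reflect transcript abundance, each mRNA represented by a 15-base tag near its 3′ end. Excluding MHC tags, linkers and duplicate ditags, libraries were compared statistically: two each of normal epithelium, FAP-derived adenomas (>70% neoplastic) and carcinomas.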", "data": [{"sequence": "GGATGGCTTA (chemistry not fully specified)", "values": [{"measurement": "AD1 (SAGE tag count)", "value": 2}, {"measurement": "AD2 (SAGE tag count)", "value": 1}, {"measurement": "CA1 (SAGE tag count)", "value": 1}, {"measurement": "CA2 (SAGE tag count)", "value": 1}, {"measurement": "NC1 (SAGE tag count)", "value": 25}, {"measurement": "NC2 (SAGE tag count)", "value": 5}]}, {"sequence": "GGCACCGTGC (chemistry not fully specified)", "values": [{"measurement": "AD1 (SAGE tag count)", "value": 8}, {"measurement": "AD2 (SAGE tag count)", "value": 10}, {"measurement": "CA1 (SAGE tag count)", "value": 8}, {"measurement": "CA2 (SAGE tag count)", "value": 4}, {"measurement": "NC1 (SAGE tag count)", "value": 22}, {"measurement": "NC2 (SAGE tag count)", "value": 44}]}, {"sequence": "GGCCCTGCAG (chemistry not fully specified)", "values": [{"measurement": "AD1 (SAGE tag count)", "value": 1}, {"measurement": "AD2 (SAGE tag count)", "value": 0}, {"measurement": "CA1 (SAGE tag count)", "value": 5}, {"measurement": "CA2 (SAGE tag count)", "value": 1}, {"measurement": "NC1 (SAGE tag count)", "value": 14}, {"measurement": "NC2 (SAGE tag count)", "value": 7}]}, {"sequence": "GGCTCGGGAT (chemistry not fully specified)", "values": [{"measurement": "AD1 (SAGE tag count)", "value": 2}, {"measurement": "AD2 (SAGE tag count)", "value": 4}, {"measurement": "CA1 (SAGE tag count)", "value": 3}, {"measurement": "CA2 (SAGE tag count)", "value": 5}, {"measurement": "NC1 (SAGE tag count)", "value": 15}, {"measurement": "NC2 (SAGE tag count)", "value": 11}]}, {"sequence": "GGCTGCCTGC (chemistry not fully specified)", "values": [{"measurement": "AD1 (SAGE tag count)", "value": 4}, {"measurement": "AD2 (SAGE tag count)", "value": 3}, {"measurement": "CA1 (SAGE tag count)", "value": 5}, {"measurement": "CA2 (SAGE tag count)", "value": 2}, {"measurement": "NC1 (SAGE tag count)", "value": 13}, {"measurement": "NC2 (SAGE tag count)", "value": 11}]}, {"sequence": "GGCTGGGCCT (chemistry not fully specified)", "values": [{"measurement": "AD1 (SAGE tag count)", "value": 14}, {"measurement": "AD2 (SAGE tag count)", "value": 5}, {"measurement": "CA1 (SAGE tag count)", "value": 10}, {"measurement": "CA2 (SAGE tag count)", "value": 8}, {"measurement": "NC1 (SAGE tag count)", "value": 46}, {"measurement": "NC2 (SAGE tag count)", "value": 25}]}, {"sequence": "GGGAAGCAGA (chemistry not fully specified)", "values": [{"measurement": "AD1 (SAGE tag count)", "value": 18}, {"measurement": "AD2 (SAGE tag count)", "value": 4}, {"measurement": "CA1 (SAGE tag count)", "value": 8}, {"measurement": "CA2 (SAGE tag count)", "value": 9}, {"measurement": "NC1 (SAGE tag count)", "value": 32}, {"measurement": "NC2 (SAGE tag count)", "value": 17}]}, {"sequence": "GGGACGAGTG (chemistry not fully specified)", "values": [{"measurement": "AD1 (SAGE tag count)", "value": 1}, {"measurement": "AD2 (SAGE tag count)", "value": 3}, {"measurement": "CA1 (SAGE tag count)", "value": 6}, {"measurement": "CA2 (SAGE tag count)", "value": 1}, {"measurement": "NC1 (SAGE tag count)", "value": 20}, {"measurement": "NC2 (SAGE tag count)", "value": 6}]}, {"sequence": "GGGCGCTGTG (chemistry not fully specified)", "values": [{"measurement": "AD1 (SAGE tag count)", "value": 3}, {"measurement": "AD2 (SAGE tag count)", "value": 6}, {"measurement": "CA1 (SAGE tag count)", "value": 4}, {"measurement": "CA2 (SAGE tag count)", "value": 5}, {"measurement": "NC1 (SAGE tag count)", "value": 11}, {"measurement": "NC2 (SAGE tag count)", "value": 27}]}, {"sequence": "GGGGCAGGGC (chemistry not fully specified)", "values": [{"measurement": "AD1 (SAGE tag count)", "value": 27}, {"measurement": "AD2 (SAGE tag count)", "value": 10}, {"measurement": "CA1 (SAGE tag count)", "value": 15}, {"measurement": "CA2 (SAGE tag count)", "value": 31}, {"measurement": "NC1 (SAGE tag count)", "value": 48}, {"measurement": "NC2 (SAGE tag count)", "value": 64}]}, {"sequence": "GGTGAAGAGG (chemistry not fully specified)", "values": [{"measurement": "AD1 (SAGE tag count)", "value": 5}, {"measurement": "AD2 (SAGE tag count)", "value": 3}, {"measurement": "CA1 (SAGE tag count)", "value": 10}, {"measurement": "CA2 (SAGE tag count)", "value": 9}, {"measurement": "NC1 (SAGE tag count)", "value": 16}, {"measurement": "NC2 (SAGE tag count)", "value": 32}]}, {"sequence": "GTAGCAGGTG (chemistry not fully specified)", "values": [{"measurement": "AD1 (SAGE tag count)", "value": 11}, {"measurement": "AD2 (SAGE tag count)", "value": 7}, {"measurement": "CA1 (SAGE tag count)", "value": 7}, {"measurement": "CA2 (SAGE tag count)", "value": 7}, {"measurement": "NC1 (SAGE tag count)", "value": 24}, {"measurement": "NC2 (SAGE tag count)", "value": 27}]}, {"sequence": "GTATTGGGGC (chemistry not fully specified)", "values": [{"measurement": "AD1 (SAGE tag count)", "value": 0}, {"measurement": "AD2 (SAGE tag count)", "value": 0}, {"measurement": "CA1 (SAGE tag count)", "value": 0}, {"measurement": "CA2 (SAGE tag count)", "value": 0}, {"measurement": "NC1 (SAGE tag count)", "value": 5}, {"measurement": "NC2 (SAGE tag count)", "value": 7}]}, {"sequence": "GTCATCACCA (chemistry not fully specified; the letters are possibly those of the target site)", "values": [{"measurement": "AD1 (SAGE tag count)", "value": 0}, {"measurement": "AD2 (SAGE tag count)", "value": 0}, {"measurement": "CA1 (SAGE tag count)", "value": 0}, {"measurement": "CA2 (SAGE tag count)", "value": 0}, {"measurement": "NC1 (SAGE tag count)", "value": 35}, {"measurement": "NC2 (SAGE tag count)", "value": 22}]}, {"sequence": "GTCCGAGTGC (chemistry not fully specified)", "values": [{"measurement": "AD1 (SAGE tag count)", "value": 0}, {"measurement": "AD2 (SAGE tag count)", "value": 0}, {"measurement": "CA1 (SAGE tag count)", "value": 0}, {"measurement": "CA2 (SAGE tag count)", "value": 0}, {"measurement": "NC1 (SAGE tag count)", "value": 17}, {"measurement": "NC2 (SAGE tag count)", "value": 3}]}, {"sequence": "GTCCTGAACA (chemistry not fully specified)", "values": [{"measurement": "AD1 (SAGE tag count)", "value": 0}, {"measurement": "AD2 (SAGE tag count)", "value": 0}, {"measurement": "CA1 (SAGE tag count)", "value": 0}, {"measurement": "CA2 (SAGE tag count)", "value": 0}, {"measurement": "NC1 (SAGE tag count)", "value": 7}, {"measurement": "NC2 (SAGE tag count)", "value": 3}]}, {"sequence": "GTGCACTGAG (chemistry not fully specified)", "values": [{"measurement": "AD1 (SAGE tag count)", "value": 14}, {"measurement": "AD2 (SAGE tag count)", "value": 7}, {"measurement": "CA1 (SAGE tag count)", "value": 12}, {"measurement": "CA2 (SAGE tag count)", "value": 13}, {"measurement": "NC1 (SAGE tag count)", "value": 118}, {"measurement": "NC2 (SAGE tag count)", "setting": "major histocompatibility complex, class I, A", "value": 48}, {"measurement": "NC2 (SAGE tag count)", "setting": "major histocompatibility complex, class I, C", "value": 45}]}, {"sequence": "GTGCCTGAGA (chemistry not fully specified)", "values": [{"measurement": "AD1 (SAGE tag count)", "value": 2}, {"measurement": "AD2 (SAGE tag count)", "value": 6}, {"measurement": "CA1 (SAGE tag count)", "value": 7}, {"measurement": "CA2 (SAGE tag count)", "value": 3}, {"measurement": "NC1 (SAGE tag count)", "value": 18}, {"measurement": "NC2 (SAGE tag count)", "value": 15}]}, {"sequence": "GTGGCGGGAA (chemistry not fully specified)", "values": [{"measurement": "AD1 (SAGE tag count)", "value": 1}, {"measurement": "AD2 (SAGE tag count)", "value": 0}, {"measurement": "CA1 (SAGE tag count)", "value": 4}, {"measurement": "CA2 (SAGE tag count)", "value": 0}, {"measurement": "NC1 (SAGE tag count)", "value": 3}, {"measurement": "NC2 (SAGE tag count)", "value": 15}]}]}
